Columns and labels:
Assay type in all cases: cell-based
[1] = tested on: Neisseria gonorrhoeae ATCC 19424; experiment: MIC by broth microdilution method (CLSI M07-A8 / M11-A7); efficiency coefficient derived; settings: broth microdilution; Neisseria gonorrhoeae ATCC 19424
Procedure: (§1) The in vitro activity of nifuratel sulfoxide racemate, R-nifuratel sulfoxide and S-nifuratel sulfoxide was tested on a panel of bacteria, which included both Gram positive and Gram negative bacteria.
(§2) The minimum inhibitory concentrations (MICs) of the compounds were determined by the broth microdilution method or by the agar dilution method, according to the National Committee for Clinical Laboratory Standards (CLSI) reference methods M07-A8 and M11-A7.
(§3) The efficiency coefficient (EC) of nifuratel sulfoxide vs. nifuratel was calculated for each tested strain as follows: EC = relative oral bioavailability*[…] [formula]
(§4) Where: • nifS = nifuratel sulfoxide • nif = nifuratel • EC = 1 is indicative of equivalent efficiency between nifuratel sulfoxide and nifuratel. • EC < 1 is indicative of a lower efficiency of nifuratel sulfoxide vs. nifuratel • EC > 1 is indicative of a higher efficiency of nifS vs. nif

[2] = tested on: Salmonella paratyphi B ATCC 10719; experiment: as above
Procedure: as §1, §2, §3, §4

[3] = tested on: Salmonella typhimurium ATCC 14028; experiment: as above; settings: broth microdilution; Salmonella typhimurium ATCC 14028
Procedure: as §1, §2, §3, §4

[4] = tested on: Shigella sonnei ATCC 11060; experiment: as above
Procedure: as §1, §2, §3, §4

[5] = tested on: Micrococcus pyogenes ATCC 11631; experiment: as above; settings: broth microdilution; Micrococcus pyogenes ATCC 11631
Procedure: as §1, §2, §3, §4

[6] = tested on: Klebsiella pneumonia ATCC 10031; experiment: as above; settings: broth microdilution; Klebsiella pneumonia ATCC 10031
Procedure: as §1, §2, §3, §4

[7] = tested on: Staphylococcus aureus (MRSA); experiment: as above; settings: broth microdilution; Staphylococcus aureus (MRSA)
Procedure: as §1, §2, §3, §4

[8] = tested on: Proteus mirabilis ATCC 14153; experiment: as above; settings: broth microdilution; Proteus mirabilis ATCC 14153
Procedure: as §1, §2, §3, §4

[9] = tested on: Escherichia coli ATCC 11775; experiment: as above; settings: broth microdilution; Escherichia coli ATCC 11775
Procedure: as §1, §2, §3, §4

Gardnerella vaginalis = experiment: MIC by agar dilution method (CLSI M07-A8 / M11-A7); efficiency coefficient derived; settings: for MIC: agar dilution; for in vitro antimicrobial activity (in words): tested Gardnerella vaginalis strains
Procedure: as §1, §2, §3, §4

Atopobium vaginae = experiment: as above; settings: for MIC: agar dilution; for in vitro antimicrobial activity (in words): tested Atopobium vaginae strains
Procedure: as §1, §2, §3, §4

[10] = tested on: Lactobacillus iners ATCC 55195; experiment: MIC by broth microdilution method (CLSI M07-A8 / M11-A7); settings: broth microdilution; Lactobacillus iners ATCC 55195
Procedure: The in vitro activity of nifuratel sulfoxide racemate, R-nifuratel sulfoxide and S-nifuratel sulfoxide was tested on a panel of bacteria, which included both Gram positive and Gram negative bacteria. The minimum inhibitory concentrations (MICs) of the compounds were determined by the broth microdilution method or by the agar dilution method, according to the National Committee for Clinical Laboratory Standards (CLSI) reference methods […]-A8 and M11-A7.

Structure (SMILES)	MIC [1]	MIC [2]	MIC [3]	MIC [4]	MIC [5]	MIC [6]	MIC [7]	MIC [8]	MIC [9]	MIC (Gardnerella vaginalis; strain ATCC 14018)	MIC (Gardnerella vaginalis; strain C2)	MIC (Gardnerella vaginalis; strain D2)	MIC (Gardnerella vaginalis; strain E2)	MIC (Gardnerella vaginalis; strain G2)	MIC (Gardnerella vaginalis; strain H2)	MIC (Gardnerella vaginalis; strain J2)	MIC (Gardnerella vaginalis; strain K2)	in vitro antimicrobial activity (in words) (Gardnerella vaginalis)	MIC (Atopobium vaginae; strain CCUG 38953)	MIC (Atopobium vaginae; strain CCUG 39382)	also measured
C[S+]([O-])CC1CN(N=Cc2ccc([N+](=O)[O-])o2)C(=O)O1 (mixture of isomers) [R-Nifuratel sulfoxide, (R)-nifuratel sulfoxide]	2 µg/mL	16 µg/mL	16 µg/mL	16 µg/mL	32 µg/mL	16 µg/mL	16 µg/mL	8 µg/mL	16 µg/mL	8 µg/mL	32 µg/mL	64 µg/mL	64 µg/mL	64 µg/mL	16 µg/mL	32 µg/mL	64 µg/mL	good activity	1 µg/mL	1 µg/mL	MIC (Atopobium vaginae; strain CCUG 42099): 1 µg/mL; MIC (Atopobium vaginae; strain CCUG 43049): 4 µg/mL; MIC (Atopobium vaginae; strain CCUG 44061): 1 µg/mL; MIC (Atopobium vaginae; strain CCUG 44156): 2 µg/mL; MIC (Atopobium vaginae; strain CCUG 48515): 2 µg/mL; MIC (Atopobium vaginae; strain CCUG 55226): 2 µg/mL; MIC (Atopobium vaginae; strain CCUG 55227): 1 µg/mL; in vitro antimicrobial activity (in words) (Atopobium vaginae): good activity; MIC [10]: 16 µg/mL
C[S+]([O-])CC1CN(N=Cc2ccc([N+](=O)[O-])o2)C(=O)O1 (mixture of isomers) [S-Nifuratel sulfoxide, (S)-nifuratel sulfoxide]	2 µg/mL	8 µg/mL	16 µg/mL	16 µg/mL	64 µg/mL	16 µg/mL	16 µg/mL	4 µg/mL	16 µg/mL	16 µg/mL	16 µg/mL	16 µg/mL	32 µg/mL	16 µg/mL	8 µg/mL	16 µg/mL	32 µg/mL	good activity	2 µg/mL	2 µg/mL	MIC (Atopobium vaginae; strain CCUG 42099): 16 µg/mL; MIC (Atopobium vaginae; strain CCUG 43049): 8 µg/mL; MIC (Atopobium vaginae; strain CCUG 44061): 1 µg/mL; MIC (Atopobium vaginae; strain CCUG 44156): 2 µg/mL; MIC (Atopobium vaginae; strain CCUG 48515): 2 µg/mL; MIC (Atopobium vaginae; strain CCUG 55226): 8 µg/mL; MIC (Atopobium vaginae; strain CCUG 55227): 4 µg/mL; in vitro antimicrobial activity (in words) (Atopobium vaginae): good activity; MIC [10]: 32 µg/mL
